Test results reported in ChEMBL document CHEMBL4507268 (2021).

Experiments:
Settings in all cases: Compound concentration 1.0 uM
[1] = molecular target: T1, Bone morphogenetic protein receptor type-2 (Homo sapiens) (UniProt Q13873)
T1 sequence (whole entry): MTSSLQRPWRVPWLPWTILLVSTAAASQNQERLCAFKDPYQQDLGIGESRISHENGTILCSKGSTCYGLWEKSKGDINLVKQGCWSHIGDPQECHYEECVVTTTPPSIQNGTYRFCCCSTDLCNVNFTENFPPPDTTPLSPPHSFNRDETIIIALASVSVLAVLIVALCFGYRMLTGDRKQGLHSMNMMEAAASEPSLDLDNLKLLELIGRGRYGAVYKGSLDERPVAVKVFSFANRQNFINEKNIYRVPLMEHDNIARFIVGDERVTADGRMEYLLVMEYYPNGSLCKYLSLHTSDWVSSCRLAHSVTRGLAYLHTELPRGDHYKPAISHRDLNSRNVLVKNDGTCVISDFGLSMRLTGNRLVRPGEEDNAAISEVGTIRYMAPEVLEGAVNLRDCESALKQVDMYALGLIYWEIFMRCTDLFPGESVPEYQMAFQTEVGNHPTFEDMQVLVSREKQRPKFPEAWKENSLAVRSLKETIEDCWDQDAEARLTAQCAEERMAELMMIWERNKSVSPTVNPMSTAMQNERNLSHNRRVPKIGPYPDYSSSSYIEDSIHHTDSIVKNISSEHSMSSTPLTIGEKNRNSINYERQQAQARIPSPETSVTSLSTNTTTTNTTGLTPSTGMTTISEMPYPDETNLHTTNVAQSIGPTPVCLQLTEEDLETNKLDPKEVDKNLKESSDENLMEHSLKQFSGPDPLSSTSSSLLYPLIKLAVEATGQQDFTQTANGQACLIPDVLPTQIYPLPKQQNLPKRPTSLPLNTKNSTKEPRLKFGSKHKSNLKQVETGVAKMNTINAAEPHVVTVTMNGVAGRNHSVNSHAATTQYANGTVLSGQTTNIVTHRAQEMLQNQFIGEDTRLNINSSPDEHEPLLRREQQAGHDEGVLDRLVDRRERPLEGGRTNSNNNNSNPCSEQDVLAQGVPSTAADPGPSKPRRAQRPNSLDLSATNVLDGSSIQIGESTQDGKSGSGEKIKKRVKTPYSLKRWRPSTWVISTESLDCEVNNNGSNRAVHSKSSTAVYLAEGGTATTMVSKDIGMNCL

[2] = molecular target: Calcium/calmodulin-dependent protein kinase type II subunit delta (Homo sapiens) (UniProt Q13557)
Calcium/calmodulin-dependent protein kinase type II subunit delta (Homo sapiens), sequence (Q13557 whole entry): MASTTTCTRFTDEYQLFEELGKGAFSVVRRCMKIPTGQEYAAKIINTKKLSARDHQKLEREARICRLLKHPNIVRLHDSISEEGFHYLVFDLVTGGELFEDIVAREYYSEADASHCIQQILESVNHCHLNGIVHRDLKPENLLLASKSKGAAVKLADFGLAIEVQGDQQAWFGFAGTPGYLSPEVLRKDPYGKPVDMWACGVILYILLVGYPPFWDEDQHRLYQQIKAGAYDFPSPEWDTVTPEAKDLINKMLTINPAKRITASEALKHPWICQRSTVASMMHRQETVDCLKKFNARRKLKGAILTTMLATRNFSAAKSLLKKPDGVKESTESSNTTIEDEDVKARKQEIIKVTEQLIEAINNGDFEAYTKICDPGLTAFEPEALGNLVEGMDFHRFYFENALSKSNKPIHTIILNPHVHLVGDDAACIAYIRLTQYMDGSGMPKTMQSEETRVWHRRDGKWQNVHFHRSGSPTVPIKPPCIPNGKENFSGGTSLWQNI

[3] = molecular target: Death-associated protein kinase 2 (Homo sapiens) (UniProt Q9UIK4)
Death-associated protein kinase 2 (Homo sapiens), sequence (Q9UIK4 whole entry, looked up): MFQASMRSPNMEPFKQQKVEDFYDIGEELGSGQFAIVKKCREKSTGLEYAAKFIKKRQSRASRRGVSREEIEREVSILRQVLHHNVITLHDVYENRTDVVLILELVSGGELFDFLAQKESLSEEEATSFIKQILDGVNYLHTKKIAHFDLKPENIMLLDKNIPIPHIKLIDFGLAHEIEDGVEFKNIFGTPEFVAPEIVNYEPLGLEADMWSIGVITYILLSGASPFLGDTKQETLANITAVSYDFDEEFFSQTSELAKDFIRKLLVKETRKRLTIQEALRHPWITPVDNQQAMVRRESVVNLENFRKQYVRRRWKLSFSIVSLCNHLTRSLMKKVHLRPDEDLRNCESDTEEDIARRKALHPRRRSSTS

[4] = molecular target: Vascular endothelial growth factor receptor 1 (Homo sapiens) (UniProt P17948)
Vascular endothelial growth factor receptor 1 (Homo sapiens), sequence (P17948 whole entry): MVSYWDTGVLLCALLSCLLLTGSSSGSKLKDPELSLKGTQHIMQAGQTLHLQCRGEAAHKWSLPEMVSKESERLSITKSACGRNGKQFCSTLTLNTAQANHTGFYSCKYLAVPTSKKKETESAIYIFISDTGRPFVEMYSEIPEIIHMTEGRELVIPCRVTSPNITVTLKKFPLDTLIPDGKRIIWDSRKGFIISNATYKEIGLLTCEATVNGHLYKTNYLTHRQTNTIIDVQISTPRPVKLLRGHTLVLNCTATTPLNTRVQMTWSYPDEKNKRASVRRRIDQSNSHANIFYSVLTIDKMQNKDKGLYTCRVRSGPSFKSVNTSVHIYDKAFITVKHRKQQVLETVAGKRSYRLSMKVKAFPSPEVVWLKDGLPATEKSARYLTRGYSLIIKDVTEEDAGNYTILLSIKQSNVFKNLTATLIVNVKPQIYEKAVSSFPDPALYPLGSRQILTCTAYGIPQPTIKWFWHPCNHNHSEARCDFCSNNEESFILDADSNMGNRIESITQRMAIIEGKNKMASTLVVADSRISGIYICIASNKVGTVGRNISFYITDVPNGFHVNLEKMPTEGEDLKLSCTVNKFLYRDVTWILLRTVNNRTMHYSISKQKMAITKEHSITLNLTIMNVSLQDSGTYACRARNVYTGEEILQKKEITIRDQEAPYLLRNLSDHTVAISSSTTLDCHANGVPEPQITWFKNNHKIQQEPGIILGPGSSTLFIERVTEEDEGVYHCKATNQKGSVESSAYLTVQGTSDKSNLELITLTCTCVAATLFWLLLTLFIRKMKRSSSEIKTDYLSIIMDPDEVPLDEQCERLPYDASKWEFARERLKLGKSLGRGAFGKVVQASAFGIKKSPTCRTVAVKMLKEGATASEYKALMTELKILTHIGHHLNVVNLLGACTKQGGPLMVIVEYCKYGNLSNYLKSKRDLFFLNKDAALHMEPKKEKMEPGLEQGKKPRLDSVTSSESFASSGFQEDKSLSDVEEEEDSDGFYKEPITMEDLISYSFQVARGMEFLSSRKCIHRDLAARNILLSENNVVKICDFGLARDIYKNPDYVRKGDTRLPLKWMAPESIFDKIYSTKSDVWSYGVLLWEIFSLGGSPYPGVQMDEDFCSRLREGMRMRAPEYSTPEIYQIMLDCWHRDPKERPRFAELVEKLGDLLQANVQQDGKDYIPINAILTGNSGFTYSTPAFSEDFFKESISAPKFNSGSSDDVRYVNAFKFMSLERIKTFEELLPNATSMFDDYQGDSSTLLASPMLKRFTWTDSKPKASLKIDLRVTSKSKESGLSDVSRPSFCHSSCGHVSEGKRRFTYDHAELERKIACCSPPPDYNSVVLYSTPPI

[5] = molecular target: T2, Beta-adrenergic receptor kinase 1 (Homo sapiens) (UniProt P25098)
T2 sequence (whole entry): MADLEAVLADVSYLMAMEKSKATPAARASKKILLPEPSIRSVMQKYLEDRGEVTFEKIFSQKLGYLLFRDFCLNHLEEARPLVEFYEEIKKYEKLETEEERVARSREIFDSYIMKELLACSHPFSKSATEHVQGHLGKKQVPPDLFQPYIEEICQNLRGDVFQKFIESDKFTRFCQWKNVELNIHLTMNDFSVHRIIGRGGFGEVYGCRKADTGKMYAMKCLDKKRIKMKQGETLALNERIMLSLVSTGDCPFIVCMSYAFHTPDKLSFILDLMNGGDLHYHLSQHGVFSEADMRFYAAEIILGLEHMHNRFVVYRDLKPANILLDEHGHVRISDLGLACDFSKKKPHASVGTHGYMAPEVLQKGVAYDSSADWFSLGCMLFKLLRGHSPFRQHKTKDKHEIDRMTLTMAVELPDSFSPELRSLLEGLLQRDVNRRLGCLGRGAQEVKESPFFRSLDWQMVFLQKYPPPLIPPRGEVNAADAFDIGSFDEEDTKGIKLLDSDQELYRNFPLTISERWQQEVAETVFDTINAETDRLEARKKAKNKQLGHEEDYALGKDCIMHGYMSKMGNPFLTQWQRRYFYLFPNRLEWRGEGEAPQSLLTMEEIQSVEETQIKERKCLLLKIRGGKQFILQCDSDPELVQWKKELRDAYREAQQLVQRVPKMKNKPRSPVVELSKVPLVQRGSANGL

[6] = molecular target: G protein-coupled receptor kinase 6 (Homo sapiens) (UniProt P43250)
G protein-coupled receptor kinase 6 (Homo sapiens), sequence (P43250 whole entry, looked up): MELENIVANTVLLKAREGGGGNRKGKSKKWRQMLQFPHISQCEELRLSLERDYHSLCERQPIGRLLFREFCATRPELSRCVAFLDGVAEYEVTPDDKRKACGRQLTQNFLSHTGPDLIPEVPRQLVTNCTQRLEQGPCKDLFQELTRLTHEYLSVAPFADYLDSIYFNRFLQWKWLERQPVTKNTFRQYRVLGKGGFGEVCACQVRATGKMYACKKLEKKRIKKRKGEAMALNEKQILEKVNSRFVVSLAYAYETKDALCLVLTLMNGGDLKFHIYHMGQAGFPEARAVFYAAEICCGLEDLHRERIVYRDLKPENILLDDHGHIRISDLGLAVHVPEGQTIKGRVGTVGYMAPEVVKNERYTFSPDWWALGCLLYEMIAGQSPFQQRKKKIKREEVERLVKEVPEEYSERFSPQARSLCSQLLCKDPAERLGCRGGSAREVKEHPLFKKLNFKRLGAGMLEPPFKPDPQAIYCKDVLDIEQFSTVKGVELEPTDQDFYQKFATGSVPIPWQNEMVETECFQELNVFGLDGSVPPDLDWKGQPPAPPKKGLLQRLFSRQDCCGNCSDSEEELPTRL

[7] = molecular target: Glycogen synthase kinase-3 alpha (Homo sapiens) (UniProt P49840)
Glycogen synthase kinase-3 alpha (Homo sapiens), sequence (P49840 2-483 limits assumed): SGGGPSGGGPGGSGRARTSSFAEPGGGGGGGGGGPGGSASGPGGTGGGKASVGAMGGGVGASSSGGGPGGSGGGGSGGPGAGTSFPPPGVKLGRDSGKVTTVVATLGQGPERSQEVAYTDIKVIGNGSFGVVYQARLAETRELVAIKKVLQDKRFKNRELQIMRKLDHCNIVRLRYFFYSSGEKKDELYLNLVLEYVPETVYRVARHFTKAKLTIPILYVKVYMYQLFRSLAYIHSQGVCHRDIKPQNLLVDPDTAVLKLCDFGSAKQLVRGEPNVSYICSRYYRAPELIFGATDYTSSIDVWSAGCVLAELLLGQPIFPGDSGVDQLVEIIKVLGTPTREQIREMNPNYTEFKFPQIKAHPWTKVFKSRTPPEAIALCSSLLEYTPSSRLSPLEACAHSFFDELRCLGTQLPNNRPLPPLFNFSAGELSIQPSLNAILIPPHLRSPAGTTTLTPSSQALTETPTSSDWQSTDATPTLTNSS

[8] = molecular target: T3, Serine/threonine-protein kinase NLK (Homo sapiens) (UniProt Q9UBE8)
T3 sequence (whole entry): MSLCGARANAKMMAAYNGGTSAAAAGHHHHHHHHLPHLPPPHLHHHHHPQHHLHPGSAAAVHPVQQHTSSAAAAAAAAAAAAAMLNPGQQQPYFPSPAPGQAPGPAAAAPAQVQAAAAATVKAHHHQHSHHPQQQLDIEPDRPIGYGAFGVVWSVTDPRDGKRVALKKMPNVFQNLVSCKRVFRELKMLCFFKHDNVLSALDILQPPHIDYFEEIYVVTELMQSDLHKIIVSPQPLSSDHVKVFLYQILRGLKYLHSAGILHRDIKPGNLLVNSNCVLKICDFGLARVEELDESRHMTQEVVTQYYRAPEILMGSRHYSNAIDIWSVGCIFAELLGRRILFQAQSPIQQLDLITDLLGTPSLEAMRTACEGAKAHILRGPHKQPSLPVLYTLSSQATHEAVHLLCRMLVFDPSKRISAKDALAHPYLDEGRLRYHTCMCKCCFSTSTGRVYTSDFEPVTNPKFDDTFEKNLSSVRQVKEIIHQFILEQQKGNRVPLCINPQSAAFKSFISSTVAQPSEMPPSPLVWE

[9] = molecular target: Serine/threonine-protein kinase pim-1 (Homo sapiens) (UniProt P11309)
Serine/threonine-protein kinase pim-1 (Homo sapiens), sequence (P11309 whole entry, looked up): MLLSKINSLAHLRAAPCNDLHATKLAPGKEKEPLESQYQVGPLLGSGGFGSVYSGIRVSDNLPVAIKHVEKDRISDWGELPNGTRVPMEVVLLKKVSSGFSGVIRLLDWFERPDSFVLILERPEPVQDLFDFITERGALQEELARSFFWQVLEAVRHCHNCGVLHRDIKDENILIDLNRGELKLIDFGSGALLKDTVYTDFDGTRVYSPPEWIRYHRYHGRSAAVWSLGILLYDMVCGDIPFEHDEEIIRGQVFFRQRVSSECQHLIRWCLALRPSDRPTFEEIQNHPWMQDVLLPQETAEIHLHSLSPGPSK

[10] = molecular target: Protein kinase C beta type (Homo sapiens) (UniProt P05771)
Protein kinase C beta type (Homo sapiens), sequence (P05771 2-671 limits assumed): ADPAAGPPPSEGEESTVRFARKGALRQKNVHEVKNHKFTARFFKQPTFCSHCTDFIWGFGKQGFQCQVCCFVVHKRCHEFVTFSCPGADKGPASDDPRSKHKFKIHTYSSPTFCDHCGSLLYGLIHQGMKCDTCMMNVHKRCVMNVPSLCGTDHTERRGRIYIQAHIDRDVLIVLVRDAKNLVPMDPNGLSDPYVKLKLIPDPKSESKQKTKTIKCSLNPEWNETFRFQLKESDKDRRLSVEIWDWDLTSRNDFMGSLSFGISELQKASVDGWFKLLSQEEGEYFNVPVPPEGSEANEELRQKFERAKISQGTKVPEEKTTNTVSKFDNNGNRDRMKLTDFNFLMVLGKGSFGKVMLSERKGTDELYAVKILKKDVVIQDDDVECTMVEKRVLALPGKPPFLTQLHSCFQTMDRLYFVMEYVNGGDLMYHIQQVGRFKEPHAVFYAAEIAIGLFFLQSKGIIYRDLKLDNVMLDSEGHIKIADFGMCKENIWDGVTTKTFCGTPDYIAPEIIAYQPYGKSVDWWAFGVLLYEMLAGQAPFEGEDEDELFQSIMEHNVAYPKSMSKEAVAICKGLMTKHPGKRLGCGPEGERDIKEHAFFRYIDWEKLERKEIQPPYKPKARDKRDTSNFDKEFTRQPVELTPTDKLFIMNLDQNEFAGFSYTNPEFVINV

[11] = molecular target: Receptor-interacting serine/threonine-protein kinase 2 (Homo sapiens) (UniProt O43353)
Receptor-interacting serine/threonine-protein kinase 2 (Homo sapiens), sequence (O43353 whole entry): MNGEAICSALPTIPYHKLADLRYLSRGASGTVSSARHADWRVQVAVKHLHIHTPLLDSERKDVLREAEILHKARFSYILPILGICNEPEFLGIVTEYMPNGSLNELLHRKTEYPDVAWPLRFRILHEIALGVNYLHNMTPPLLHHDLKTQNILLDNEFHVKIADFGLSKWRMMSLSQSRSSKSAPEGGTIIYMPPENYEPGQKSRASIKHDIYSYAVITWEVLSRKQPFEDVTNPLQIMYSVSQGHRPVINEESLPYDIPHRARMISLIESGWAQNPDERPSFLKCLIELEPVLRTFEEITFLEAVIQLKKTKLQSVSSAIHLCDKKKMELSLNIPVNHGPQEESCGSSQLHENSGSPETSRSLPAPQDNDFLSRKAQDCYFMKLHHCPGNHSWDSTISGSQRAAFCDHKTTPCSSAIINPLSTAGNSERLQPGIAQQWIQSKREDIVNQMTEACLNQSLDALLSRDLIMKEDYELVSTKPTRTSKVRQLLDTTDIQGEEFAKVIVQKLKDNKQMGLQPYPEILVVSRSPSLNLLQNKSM

[12] = molecular target: Mitogen-activated protein kinase 11 (Homo sapiens) (UniProt Q15759)
[13] = molecular target: STE20-like serine/threonine-protein kinase (Homo sapiens) (UniProt Q9H2G2)
[14] = molecular target: Serine/threonine-protein kinase PLK2 (Homo sapiens) (UniProt Q9NYY3)

Measured: % residual kinase activity

CN1CCN(c2cnc3c(C4CCN(C(=O)c5ccc(OC(F)(F)F)cc5N)CC4)ncnc3c2)CC1 [BAY-885]
inactive: [1] 100% | [2] 95% | [3] 99% | [4] 108% | [5] 85% | [6] 111% | [7] 112% | [8] 111% | [9] 111% | [10] 112% | [11] 101% | [12] 103% | [13] 87% | [14] 119%
